Measured values reported in patent US8614327B2 (Vertex Pharmaceuticals Incorporated, priority 2004, dated 2013).

Biological target: T1, ΔF508-CFTR (Homo sapiens, UniProt P13569, DEL508-508)
T1 construct: expressed in transfected cells
Experiment: Membrane potential optical (FRET/VIPR) assay, identification of potentiator compounds
Format: cell-based
Conditions: Table 3, assay not given; for % Activity: relative efficacy
From the text: I) Membrane Potential Optical Methods for Assaying ΔF508-CFTR Modulation Properties of Compounds The optical membrane potential assay utilized voltage-sensitive FRET sensors described by Gonzalez and Tsien (See, Gonzalez, J. E. and R. Y. Tsien (1995) “Voltage sensing by fluorescence resonance energy transfer in single cells” Biophys J 69(4): 1272-80, and Gonzalez, J. E. and R. Y. Tsien (1997) “Improved indicators of cell membrane potential that use fluorescence resonance energy transfer” Chem Biol 4(4): 269-77) in combination with instrumentation for measuring fluorescence changes such as the Voltage/Ion Probe Reader (VIPR) (See, […]. Oades, et al. (1999) “Cell-based assays and instrumentation for screening ion-channel targets” Drug Discov Today 4(9): 431-439). These voltage sensitive assays are based on the change in fluorescence resonant energy transfer (FRET) between the membrane-soluble, voltage-sensitive dye, DiSBAC2(3), and a fluorescent phospholipid, CC2-DMPE, which is attached to the outer leaflet of the plasma membrane and acts as a FRET donor. Changes in membrane potential (Vm) cause the negatively charged DiSBAC2(3) to redistribute across the plasma membrane and the amount of energy transfer from CC2-DMPE changes accordingly. The changes in fluorescence emission were monitored using VIPR which is an integrated liquid handler and fluorescent detector designed to conduct cell-based screens in 96- or 384-well microtiter plates. To identify potentiators of ΔF508-CFTR, a double-addition HTS assay format was developed. During the first addition, a Cl^--free medium with or without test compound was added to each well. […] (in mM) NaCl 160, KCl 4.5, CaCl2 2, MgCl2 1, HEPES 10, pH 7.4 with NaOH. • Chloride-free bath solution: Chloride salts in Bath Solution #1 are substituted with gluconate salts. • CC2-DMPE: Prepared as a 10 mM stock solution in DMSO and stored at -20° C. • DiSBAC2(3): Prepared as a 10 mM stock in DMSO and stored at -20° C. NIH3T3 mouse fibroblasts stably expressing ΔF508-CFTR are used for optical measurements of membrane potential. […] For all optical assays, the cells were seeded at 30,000/well in 384-well matrigel-coated plates and cultured for 2 hrs at 37° C. before culturing at 27° C. for 24 hrs. for the potentiator assay.

T1 sequence (P13569 with tags, fused parts or gaps DEL508-508): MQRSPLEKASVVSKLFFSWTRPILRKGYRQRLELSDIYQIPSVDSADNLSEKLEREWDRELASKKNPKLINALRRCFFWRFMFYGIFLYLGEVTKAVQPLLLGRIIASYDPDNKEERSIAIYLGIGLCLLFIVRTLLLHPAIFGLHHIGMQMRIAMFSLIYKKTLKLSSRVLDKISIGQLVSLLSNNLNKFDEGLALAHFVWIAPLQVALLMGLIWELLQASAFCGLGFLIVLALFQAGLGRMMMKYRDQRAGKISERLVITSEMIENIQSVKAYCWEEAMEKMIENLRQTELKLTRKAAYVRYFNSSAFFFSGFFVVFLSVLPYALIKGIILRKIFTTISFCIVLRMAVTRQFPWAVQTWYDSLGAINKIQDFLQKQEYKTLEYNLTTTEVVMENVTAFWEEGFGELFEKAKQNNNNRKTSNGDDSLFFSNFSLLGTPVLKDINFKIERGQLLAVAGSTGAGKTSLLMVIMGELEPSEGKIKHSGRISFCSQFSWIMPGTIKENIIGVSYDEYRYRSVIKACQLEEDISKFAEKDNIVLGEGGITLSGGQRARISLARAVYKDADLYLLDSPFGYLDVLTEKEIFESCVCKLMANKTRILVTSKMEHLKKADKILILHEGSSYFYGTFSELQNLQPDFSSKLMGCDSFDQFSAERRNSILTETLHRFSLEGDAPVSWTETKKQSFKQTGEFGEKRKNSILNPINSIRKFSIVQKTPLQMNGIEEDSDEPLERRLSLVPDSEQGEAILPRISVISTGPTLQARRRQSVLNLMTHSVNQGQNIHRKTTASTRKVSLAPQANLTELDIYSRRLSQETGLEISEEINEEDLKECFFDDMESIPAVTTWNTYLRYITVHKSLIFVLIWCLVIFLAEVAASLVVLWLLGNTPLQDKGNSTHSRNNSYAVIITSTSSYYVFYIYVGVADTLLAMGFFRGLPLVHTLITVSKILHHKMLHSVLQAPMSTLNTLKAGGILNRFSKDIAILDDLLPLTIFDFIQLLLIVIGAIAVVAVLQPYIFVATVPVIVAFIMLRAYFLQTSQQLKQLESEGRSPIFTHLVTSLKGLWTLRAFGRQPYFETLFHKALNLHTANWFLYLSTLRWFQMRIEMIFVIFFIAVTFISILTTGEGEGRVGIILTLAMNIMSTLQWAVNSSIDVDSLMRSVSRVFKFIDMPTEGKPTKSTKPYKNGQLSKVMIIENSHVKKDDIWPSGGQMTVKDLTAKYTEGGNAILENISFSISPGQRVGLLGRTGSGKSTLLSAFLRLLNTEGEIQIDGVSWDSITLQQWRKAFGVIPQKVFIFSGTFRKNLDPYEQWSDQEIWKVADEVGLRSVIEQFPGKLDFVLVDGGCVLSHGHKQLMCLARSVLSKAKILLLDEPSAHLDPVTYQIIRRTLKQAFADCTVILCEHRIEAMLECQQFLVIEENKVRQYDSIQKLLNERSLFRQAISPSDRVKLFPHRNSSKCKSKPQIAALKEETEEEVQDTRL

Row | SMILES | % Activity | EC50 [µM]
1 | CCCc1ccc(N)cc1NC(=O)c1c[nH]c2ccccc2c1=O [Compound 41, N-(5-amino-2-propyl-phenyl)-4-oxo-1H-quinoline-3-carboxamide] | ++ (between 25% to 100%) | –
2 | O=C(Nc1ccccc1Oc1ncc(C(F)(F)F)cc1Cl)c1c[nH]c2ccccc2c1=O [Compound 42, N-[2-[[3-chloro-5-(trifluoromethyl)-2-pyridyl]oxy]phenyl]-4-oxo-1H-quinoline-3-carboxamide] | ++ (between 25% to 100%) | < 10
3 | CCOc1cccc(-c2cc(C(C)(C)C)c(O)cc2NC(=O)c2c[nH]c3ccccc3c2=O)c1 [Compound 43, N-[2-(3-ethoxyphenyl)-5-hydroxy-4-tert-butyl-phenyl]-4-oxo-1H-quinoline-3-carboxamide] | ++ (between 25% to 100%) | < 10
4 | Cc1nc2cc(NC(=O)c3c[nH]c4ccccc4c3=O)ccc2s1 [Compound 44, N-(2-methylbenzothiazol-5-yl)-4-oxo-1H-quinoline-3-carboxamide] | ++ (between 25% to 100%) | 10 to 25
5 | O=C(Nc1cc(Cl)cc(NS(=O)(=O)CCN2CCOCC2)c1)c1c[nH]c2ccccc2c1=O [Compound 46, N-[3-chloro-5-(2-morpholinoethylsulfonylamino)phenyl]-4-oxo-1H-quinoline-3-carboxamide] | ++ (between 25% to 100%) | 10 to 25
6 | CC(C)c1ccc(NC(=O)c2c[nH]c3ccccc3c2=O)c(C(F)(F)F)c1 [Compound 47, N-[4-isopropyl-2-(trifluoromethyl)phenyl]-4-oxo-1H-quinoline-3-carboxamide] | ++ (between 25% to 100%) | < 10
7 | O=C(Nc1cc(Cl)ccc1F)c1c[nH]c2ccccc2c1=O [Compound 48, N-(5-chloro-2-fluoro-phenyl)-4-oxo-1H-quinoline-3-carboxamide] | ++ (between 25% to 100%) | < 10
8 | COc1cccc(OC)c1-c1ccccc1NC(=O)c1c[nH]c2ccccc2c1=O [Compound 49, N-[2-(2,6-dimethoxyphenyl)phenyl]-4-oxo-1H-quinoline-3-carboxamide] | ++ (between 25% to 100%) | < 10
9 | Cc1cc(C)c(NC(=O)c2c[nH]c3ccccc3c2=O)c(C)c1 [Compound 50, 4-oxo-N-(2,4,6-trimethylphenyl)-1H-quinoline-3-carboxamide] | ++ (between 25% to 100%) | < 10
10 | CC1CCN(S(=O)(=O)c2ccc3[nH]cc(C(=O)Nc4cc5[nH]ccc5cc4C(C)(C)C)c(=O)c3c2)CC1 [Compound 51, 6-[(4-methyl-1-piperidyl)sulfonyl]-4-oxo-N-(5-tert-butyl-1H-indol-6-yl)-1H-quinoline-3-carboxamide] | ++ (between 25% to 100%) | < 10
11 | Cc1cccc(-c2ccccc2NC(=O)c2c[nH]c3ccccc3c2=O)c1 [Compound 52, N-[2-(m-tolyl)phenyl]-4-oxo-1H-quinoline-3-carboxamide] | ++ (between 25% to 100%) | < 10
12 | O=C(Nc1ccncc1)c1c[nH]c2ccccc2c1=O [Compound 53, 4-oxo-N-(4-pyridyl)-1H-quinoline-3-carboxamide] | + (<25%) | 25 to 60
13 | O=C(Nc1cccc2nsnc12)c1c[nH]c2ccccc2c1=O [Compound 54, 4-oxo-N-(8-thia-7,9-diazabicyclo[4.3.0]nona-2,4,6,9-tetraen-5-yl)-1H-quinoline-3-carboxamide] | + (<25%) | 25 to 60

Second part, the molecule after the results:

Row | % Activity | EC50 [µM] | SMILES
14 | + (<25%) | 25 to 60 | COc1c(N)cc(C(C)(C)C)cc1NC(=O)c1c[nH]c2ccccc2c1=O [Compound 55, N-(3-amino-2-methoxy-5-tert-butyl-phenyl)-4-oxo-1H-quinoline-3-carboxamide]
15 | ++ (between 25% to 100%) | < 10 | O=C(Nc1cc2c(cc1O)CCCC2)c1c[nH]c2ccccc2c1=O [Compound 56, 1,4-dihydro-N-(1,2,3,4-tetrahydro-6-hydroxynaphthalen-7-yl)-4-oxoquinoline-3-carboxamide]
16 | +++ (>100%) | 10 to 25 | CCC1(c2ccc(NC(=O)c3c[nH]c4ccccc4c3=O)cc2)CCC(=O)NC1=O (stereo not shown) [Compound 57, N-[4-(3-ethyl-2,6-dioxo-3-piperidyl)phenyl]-4-oxo-1H-quinoline-3-carboxamide]
17 | ++ (between 25% to 100%) | < 10 | Nc1cc(NC(=O)c2c[nH]c3ccccc3c2=O)ccc1OC(F)(F)F [Compound 58, N-[3-amino-4-(trifluoromethoxy)phenyl]-4-oxo-1H-quinoline-3-carboxamide]
18 | +++ (>100%) | < 10 | COc1ccc(C(C)C)cc1-c1ccccc1NC(=O)c1c[nH]c2ccccc2c1=O [Compound 59, N-[2-(5-isopropyl-2-methoxy-phenyl)phenyl]-4-oxo-1H-quinoline-3-carboxamide]
19 | ++ (between 25% to 100%) | < 10 | CC(C)c1ccc(NC(=O)OC(C)(C)C)cc1NC(=O)c1c[nH]c2ccccc2c1=O [Compound 60, [4-isopropyl-3-[(4-oxo-1H-quinolin-3-yl)carbonylamino]phenyl]aminoformic acid tert-butyl ester]
20 | ++ (between 25% to 100%) | < 10 | Cc1cccc(NC(=O)c2c[nH]c3ccccc3c2=O)c1C [Compound 61, N-(2,3-dimethylphenyl)-4-oxo-1H-quinoline-3-carboxamide]
21 | ++ (between 25% to 100%) | < 10 | O=C(Nc1cccc(OC(F)(F)F)c1)c1c[nH]c2ccccc2c1=O [Compound 62, 4-oxo-N-[3-(trifluoromethoxy)phenyl]-1H-quinoline-3-carboxamide]
22 | ++ (between 25% to 100%) | < 10 | O=C(Nc1ccccc1-c1ccc(F)cc1F)c1c[nH]c2ccccc2c1=O [Compound 63, N-[2-(2,4-difluorophenyl)phenyl]-4-oxo-1H-quinoline-3-carboxamide]
23 | + (<25%) | 25 to 60 | O=C(Nc1ccc2[nH]c(=O)[nH]c2c1)c1c[nH]c2ccccc2c1=O [Compound 64, 4-oxo-N-(2-oxo-1,3-dihydrobenzoimidazol-5-yl)-1H-quinoline-3-carboxamide]
24 | ++ (between 25% to 100%) | < 10 | O=C(Nc1cc2[nH]ccc2cc1-c1cccnc1)c1c[nH]c2ccccc2c1=O [Compound 65, 4-oxo-N-[5-(3-pyridyl)-1H-indol-6-yl]-1H-quinoline-3-carboxamide]
25 | ++ (between 25% to 100%) | 10 to 25 | O=C(Nc1ccc2c(c1)OC(F)(F)O2)c1c[nH]c2ccccc2c1=O [Compound 66, N-(2,2-difluorobenzo[1,3]dioxol-5-yl)-4-oxo-1H-quinoline-3-carboxamide]
26 | ++ (between 25% to 100%) | < 10 | CCc1ccc2ncc(C(=O)Nc3ccc4cc[nH]c4c3)c(O)c2c1 [Compound 67, 6-ethyl-4-hydroxy-N-(1H-indol-6-yl)quinoline-3-carboxamide]
27 | ++ (between 25% to 100%) | – | COC(=O)c1cccc(-c2ccccc2NC(=O)c2c[nH]c3ccccc3c2=O)c1 [Compound 68, 3-[2-[(4-oxo-1H-quinolin-3-yl)carbonylamino]phenyl]benzoic acid methyl ester]
28 | ++ (between 25% to 100%) | < 10 | CC(C)c1ccc(NC(=O)c2c[nH]c3ccccc3c2=O)cc1N [Compound 69, N-(3-amino-4-isopropyl-phenyl)-4-oxo-1H-quinoline-3-carboxamide]
29 | ++ (between 25% to 100%) | – | O=C(Nc1ccccc1-c1ccncc1)c1c[nH]c2ccccc2c1=O [Compound 70, 4-oxo-N-[2-(4-pyridyl)phenyl]-1H-quinoline-3-carboxamide]
